For series [1], the system named is RAW264.7. The series can be described thus: Cytotoxicity against mouse RAW264.7 cells assessed as cell viability at 0.1 uM after 48 hrs by MTT assay relative to control. It counts as functional. To be noted: RAW264.7, 48 h, read-out: Activity. (Formazan colour is commonly taken as a measure of viable cells.)
For series [2], the system named is RAW264.7. The series can be described thus: Cytotoxicity against mouse RAW264.7 cells assessed as cell viability at 1 uM after 48 hrs by MTT assay relative to control. The settings on record: RAW264.7, 48 h, read-out: Activity. The format is functional.
Series [3] has as its system HeLa. The series can be described thus: Cytotoxicity against human HeLa cells assessed as cell viability at 1 uM after 48 hrs by MTT assay relative to control. The format is functional. The settings on record: read-out: Activity.
Series [4] concerns HeLa. The series can be described thus: Cytotoxicity against human HeLa cells assessed as cell viability at 0.1 uM after 48 hrs by MTT assay relative to control. The format is functional. To be noted: read-out: Activity.
Series [5] can be described thus: Cytotoxicity against African green monkey COS7 cells assessed as cell viability at 0.1 uM after 48 hrs by MTT assay relative to control. It counts as cell-based, COS-7. To be noted: chlorocebus aethiops, read-out: Activity.
Series [6] concerns U-87MG ATCC. The series can be described thus: Antitumor activity against human U87MG cells xenografted in mouse assessed as decrease in microvessel density in tumor bed by measuring CD31-positive cells at […] 7.5 mg/kg, po administered twice per week for 2 weeks measured after 4 weeks by immunohistochemical analysis relative to control. The format is functional, organism-based.

The nature of series [7]: Antitumor activity against human U87MG cells xenografted in Balb/c nude mouse orthotopic model assessed as reduction in tumor volume at 3.75 mg/kg, po administered twice per week for 2 weeks measured after 4 weeks (reference value: 25 +/- 2.6 mm3). It counts as functional, U-87MG ATCC.
Series [8] concerns RAW264.7. The series can be described thus: Cytotoxicity against mouse RAW264.7 cells assessed as cell viability at 10 uM after 48 hrs by MTT assay relative to control. The format is functional. To be noted: RAW264.7, 48 h, read-out: Activity.
In series [9] the test system is HeLa. The series can be described thus: Cytotoxicity against human HeLa cells assessed as cell viability at 100 uM after 48 hrs by MTT assay relative to control. To be noted: read-out: Activity. It counts as functional.
Series [10] is described as follows: Cytotoxicity against African green monkey COS7 cells assessed as cell viability at 100 uM after 48 hrs by MTT assay relative to control. It counts as cell-based, COS-7. To be noted: chlorocebus aethiops, read-out: Activity.
Series [11] in a line: Cytotoxicity against African green monkey COS7 cells assessed as cell viability at 1 uM after 48 hrs by MTT assay relative to control. The format is cell-based, COS-7. The settings on record: chlorocebus aethiops, read-out: Activity.
The test system of series [12] is U-87MG ATCC. The series can be described thus: Antitumor activity against human U87MG cells xenografted in mouse assessed as tumor growth inhibition by measuring PCNA-positive cells at […] 7.5 mg/kg, po administered twice per week for 2 weeks measured after 4 weeks by immunohistochemical analysis relative to control. The format is functional, organism-based.

Series [13] can be described thus: Antitumor activity against human U87MG cells xenografted in Balb/c nude mouse assessed as reduction in tumor volume at 7.5 mg/kg, po administered twice per week for 2 weeks measured after 4 weeks (reference value: 25 +/- 2.6 mm3). It counts as functional, U-87MG ATCC.
The subject of series [14] is RAW264.7. The series can be described thus: Cytotoxicity against mouse RAW264.7 cells assessed as cell viability at 100 uM after 48 hrs by MTT assay relative to control. It counts as functional. To be noted: RAW264.7, 48 h, read-out: Activity.
For series [15], the system named is U-87 MG. The series can be described thus: Induction of apoptosis in human U87MG cells xenografted in mouse at 3.75 to 7.5 mg/kg, po administered twice per week for 2 weeks measured after 4 weeks by TUNEL-staining based immunohistochemical analysis relative to control. It counts as functional, organism-based. To be noted: U-87MG ATCC. A general note: Xenograft models place foreign cells or tissue in a host animal.

Series [16] relates to HeLa. The series can be described thus: Cytotoxicity against human HeLa cells assessed as cell viability at 10 uM after 48 hrs by MTT assay relative to control. The settings on record: read-out: Activity. The format is functional.
Series [17] can be described thus: Cytotoxicity against African green monkey COS7 cells assessed as cell viability at 10 uM after 48 hrs by MTT assay relative to control. The format is cell-based, COS-7. The settings on record: chlorocebus aethiops, read-out: Activity.
Series [18] deals with Lung. The series can be described thus: Drug uptake in lung of C57BL/6 mouse at 115.6 mg/kg, ip after 20 mins by fluorescence microscopy. To be noted: in vivo. The arrangement: dose 115.6 mg/kg, route intraperitoneal. The format is ADME, organism-based.
The subject of series [19] is Liver. The series can be described thus: Drug uptake in liver of C57BL/6 mouse at 115.6 mg/kg, ip after 20 mins by fluorescence microscopy. The format is ADME, organism-based. The arrangement: dose 115.6 mg/kg, route intraperitoneal. To be noted: in vivo.
The subject of series [20] is Kidney. The series can be described thus: Drug uptake in kidney of C57BL/6 mouse at 115.6 mg/kg, ip after 20 mins by fluorescence microscopy. The format is ADME, organism-based. Also noted: dose 115.6 mg/kg, route intraperitoneal. To be noted: in vivo.
Series [21] concerns Heart. The series can be described thus: Drug uptake in heart muscle of C57BL/6 mouse at 115.6 mg/kg, ip after 20 mins by fluorescence microscopy. It counts as ADME, organism-based, Muscle tissue. Also noted: dose 115.6 mg/kg, route intraperitoneal. To be noted: in vivo.
Series [22] has as its system Spleen. The series can be described thus: Drug uptake in spleen of C57BL/6 mouse at 115.6 mg/kg, ip after 20 mins by fluorescence microscopy. The format is ADME, organism-based. Also noted: dose 115.6 mg/kg, route intraperitoneal. To be noted: in vivo.
Series [23] deals with Brain. The series can be described thus: Drug uptake in brain of C57BL/6 mouse at 115.6 mg/kg, ip after 20 mins by fluorescence microscopy. The format is ADME, organism-based. Also noted: dose 115.6 mg/kg, route intraperitoneal. To be noted: in vivo.

Activity calls are given as the source filed them. The calls are words filed in the database; no cut-off is given here.

This is an account of results in ChEMBL document CHEMBL3217738, “Preparation of blood-brain barrier-permeable paclitaxel-carrier conjugate and its chemotherapeutic activity in the mouse glioblastoma model” (Medchemcomm, 2011).

Take `CC(=O)O[C@H]1C(=O)[C@@]2(C)[C@H]([C@H](OC(=O)c3ccccc3)[C@]3(O)C[C@H](OC(=O)[C@H](OC(=O)CCC(=O)OC[C@@H](OC(=O)CCCCCN(CCCNC(=N)N)CCCNC(=N)N)[C@@H](OC(=O)CCCCCN(CCCNC(=N)N)CCCNC(=N)N)[C@H](OC(=O)CCCCCN(CCCNC(=N)N)CCCNC(=N)N)[C@H](CO)OC(=O)CCCCCN(CCCNC(=N)N)CCCNC(=N)N)[C@@H](NC(=O)c4ccccc4)c4ccccc4)C(C)=C1C3(C)C)[C@]1(OC(C)=O)CO[C@@H]1C[C@@H]2O.Cl`: the viability at 0.1 µM in [1] stood at 117%; in series [4], 87.4%. Further, the values for the viability at 1 µM in series [2] and in series [3] were 111% and 78%, respectively. In addition, the viability at 48 h, 0.1 µM in series [5] was determined as 96.2%. Besides, the outcome in series [6] and in series [15] was Active. Also, the figures for the Activity in series [7] and in series [13] were 6.1 mm3 and 4.7 mm3, respectively. The viability at 10 µM in series [8] was determined as 53.4%; in [16], 83.1%. Moreover, the viability at 100 µM in series [9] worked out at 3.8%; in series [14], 2.6%. Moreover, in series [10], the viability at 48 h, 100 µM worked out at 20.6%. The viability at 48 h, 1 µM in series [11] amounted to 92.4%. Further, the TGI entry in [12] was “Active”. The viability at 48 h, 10 µM in [17] was 94.5%.

Regarding `CC(=O)O[C@H]1C(=O)[C@@]2(C)[C@H]([C@H](OC(=O)c3ccccc3)[C@]3(O)C[C@H](OC(=O)[C@H](O)[C@@H](NC(=O)c4ccccc4)c4ccccc4)C(C)=C1C3(C)C)[C@]1(OC(C)=O)CO[C@@H]1C[C@@H]2O` [PACLITAXEL], the values for the viability at 0.1 µM in [1] and in series [4] were 39.3% and 76.3%, respectively. Besides, the viability at 1 µM is 39.2% in series [2] and 86.3% in [3]. In series [5], the viability at 48 h, 0.1 µM is 65.4%. In addition, the results for the viability at 10 µM in series [8] and in series [16] were 49.9% and 96.1%, respectively. Also, the viability at 100 µM in series [9] was 56.5%; in [14], 13.3%. Further, the viability at 48 h, 100 µM in series [10] was determined as 41.5%. Further, in series [11], the viability at 48 h, 1 µM was 66.5%. The Activity in series [13] is reported as 19.4 mm3. In series [17], the viability at 48 h, 10 µM is 71.9%.

Regarding `CC(=O)O[C@H]1C(=O)[C@@]2(C)[C@H]([C@H](OC(=O)c3ccccc3)[C@]3(O)C[C@H](OC(=O)[C@H](OC(=O)CCC(=O)OC[C@H](OC(=O)CCCCCN(CCCNC(=N)N)CCCNC(=N)N)[C@@H](OC(=O)CCCCCN(CCCNC(=N)N)CCCNC(=N)N)[C@H](OC(=O)CCCCCN(CCCNC(=N)N)CCCNC(=N)N)[C@@H](COC(=O)CCCCCNC(=S)Nc4ccc(-c5c6ccc(=O)cc-6oc6cc(O)ccc56)c(C(=O)O)c4)OC(=O)CCCCCN(CCCNC(=N)N)CCCNC(=N)N)[C@@H](NC(=O)c4ccccc4)c4ccccc4)C(C)=C1C3(C)C)[C@]1(OC(C)=O)CO[C@@H]1C[C@@H]2O.Cl`, the Drug uptake result in series [18], in series [19], in series [20], in series [21], in series [22] and in [23] was “Active” each time.
